Data on one molecule can be found in patent publication US8278359B2, “Compositions containing amines and use thereof to treat acne or reduce the appearance of oil or pores on the skin” (Johnson & Johnson Consumer Companies, Inc., priority 2005, dated 2012).

The assay has as its system Human keratinocytes. In words: Electric Cell-substrate Impedance Sensing (ECIS) capacitance, keratinocyte contraction. It counts as cell-based. Conditions: capacitance integrated over 5 hrs, 40,000 Hz, pH 7.2-7.3. The source says: Electrical changes due to the presence of a cell layer can be used to calculate cell morphological parameters including the barrier function of the cell layer (the spacing between the ventral side of the cell and the substratum) and the cell membrane capacitance (Giaever and Keese, Proceedings of National Academy of Sciences 88, 7896, 1991).
Current flowing between a reference electrode, onto which cells or cell cultures may be attached, and a larger counter electrode using normal culture medium as the electrolyte can be used to detect changes in cell morphological parameters. In the absence of cells on the electrode, the current flows unrestrained from the surface of the electrodes. In the presence of cells attached and spread upon the electrode, the current must now flow in the spaces under and between the cells, as the cell membrane act as insulators.
The electrical changes of living, viable cells can be sampled rapidly, in real time, over an extended period of time, and the measurements are the measurement is non-invasive. An example of this technology is the Electric Cell-substrate Impedance Sensing System (ECIS) available from Applied Biophysics (Troy, N.Y.). […]
Human keratinocytes and Epilife culture media (Cascade Biologics, Portland, Oreg.) were cultured at 37° C. in a humidified atmospheres of 5% CO2/95% air. […] Capacitance changes (in nanofarads, nF) of keratinocytes were measured using a Electric Cell-substrate Impedance Sensing System (ECIS) Model 1600R (Applied Biophysics, Troy, N.Y.) using the method of Wegener and co-workers (Wegener J, Keese C R, Giaever I, Exp Cell Res. 259:158-166, 2000) at a frequency of 40,000 Hz. Capacitance readings are inversely related to the contact area of a cell onto the ECIS electrode array, the greater the cell area contacting the electrode the smaller the capacitance readings (Wegener J, Keese C R, Giaever I, Exp Cell Res. 259:158-166, 2000). Conversely as a cell contracts or shrinks, the contact area of the cell onto the ECIS electrode array decreases, resulting in an increase in the capacitance readings. […]

`CC(O)CN(CCN(CC(C)O)CC(C)O)CC(C)O` (stereo not drawn) [THPED, N,N,N′,N′-Tetrakis(2-hydroxypropyl)ethylenediamine]: the “Electrical Capacitance Contraction of Human Keratinocytes (AUC, Mean ± Std Dev)” value (shortened to “Electrical Capacitance Contraction”) (0.01% V/V) was 29.2 ± 3.2; the “Electrical Capacitance Contraction” value (0.05% V/V) was 35.1 ± 5.3; the “Electrical Capacitance Contraction” value (0.1% V/V) is listed as 44.5 ± 9.1.
